Assay results as given in patent publication US20250314586A1, “SYSTEMS AND METHODS FOR HIGH THROUGHPUT SINGLE MOLECULE TRACKING IN LIVING CELLS” (EIKON THERAPEUTICS, INC., priority 2022, published 2025).
“Also recorded” adds a separate entry of the source. Like-named read-outs stand apart in the source and are kept apart here.

Columns and labels:
Estrogen Receptor (ER) [1] = target: T1, Estrogen Receptor (ER) (Homo sapiens, UniProt P03372); test: htSMT of Halo-ER in U2OS cells (fbound, Dfree); format: cell-based; conditions: for effect of pathway inhibitors on ER fbound / ER movement: retest and dose titration of pathway inhibitors
T1 construct: expressed in transfected cells; host or cells: U2OS
T1 sequence (P03372 1-595): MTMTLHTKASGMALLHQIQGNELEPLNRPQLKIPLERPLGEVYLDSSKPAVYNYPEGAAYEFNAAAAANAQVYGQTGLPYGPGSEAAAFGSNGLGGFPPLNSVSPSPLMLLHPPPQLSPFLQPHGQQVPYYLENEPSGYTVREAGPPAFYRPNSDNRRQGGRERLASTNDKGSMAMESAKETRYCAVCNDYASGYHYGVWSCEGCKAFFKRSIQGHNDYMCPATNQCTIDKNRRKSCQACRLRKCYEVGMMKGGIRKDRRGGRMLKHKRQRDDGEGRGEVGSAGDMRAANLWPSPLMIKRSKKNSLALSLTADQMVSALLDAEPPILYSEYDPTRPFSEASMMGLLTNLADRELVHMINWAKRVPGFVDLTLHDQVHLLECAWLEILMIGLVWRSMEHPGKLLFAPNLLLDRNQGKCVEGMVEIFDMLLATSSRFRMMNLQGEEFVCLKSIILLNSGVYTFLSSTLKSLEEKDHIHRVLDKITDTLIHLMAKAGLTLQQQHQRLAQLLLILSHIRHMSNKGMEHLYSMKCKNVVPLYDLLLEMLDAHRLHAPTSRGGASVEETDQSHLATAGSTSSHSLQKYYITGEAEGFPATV

androgen receptor (AR) = androgen receptor (AR) (Homo sapiens, UniProt P10275)
Chain of androgen receptor (AR) (P10275 whole entry): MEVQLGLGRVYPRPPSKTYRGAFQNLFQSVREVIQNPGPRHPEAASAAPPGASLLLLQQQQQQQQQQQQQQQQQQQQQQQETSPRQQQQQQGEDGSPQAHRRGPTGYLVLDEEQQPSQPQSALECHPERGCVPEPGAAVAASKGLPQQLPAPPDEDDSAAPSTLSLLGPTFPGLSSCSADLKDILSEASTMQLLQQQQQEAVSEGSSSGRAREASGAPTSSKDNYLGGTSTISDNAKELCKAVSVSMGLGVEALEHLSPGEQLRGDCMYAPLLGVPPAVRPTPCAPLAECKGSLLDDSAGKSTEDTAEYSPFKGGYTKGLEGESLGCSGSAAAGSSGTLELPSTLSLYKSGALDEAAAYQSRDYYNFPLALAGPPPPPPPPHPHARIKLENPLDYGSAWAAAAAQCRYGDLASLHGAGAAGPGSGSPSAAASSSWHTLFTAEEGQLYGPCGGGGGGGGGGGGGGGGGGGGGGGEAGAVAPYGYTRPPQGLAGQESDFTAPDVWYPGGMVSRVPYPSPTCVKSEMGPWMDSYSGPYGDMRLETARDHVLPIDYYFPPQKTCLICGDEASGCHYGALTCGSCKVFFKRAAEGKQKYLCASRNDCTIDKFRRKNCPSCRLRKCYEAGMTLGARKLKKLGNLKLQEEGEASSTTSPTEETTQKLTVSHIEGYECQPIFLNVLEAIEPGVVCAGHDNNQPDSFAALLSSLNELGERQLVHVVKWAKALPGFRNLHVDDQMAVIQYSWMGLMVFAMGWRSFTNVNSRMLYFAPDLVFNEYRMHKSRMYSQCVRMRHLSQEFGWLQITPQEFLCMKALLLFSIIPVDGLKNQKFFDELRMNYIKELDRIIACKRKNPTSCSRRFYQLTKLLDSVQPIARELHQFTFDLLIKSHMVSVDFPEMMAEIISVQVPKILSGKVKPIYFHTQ

[2] = target: T2, glucocorticoid receptor (GR) (Homo sapiens, UniProt P04150); test: htSMT of Halo-GR in U2OS cells; format: cell-based; conditions: 1 μM antagonist, singly or co-administered with cognate agonist
T2 construct: Because U2OS cells express GR endogenously, HaloTag was inserted right before the stop codon of endogenous NR3C1; endogenous in cells; host or cells: U2OS (CRISPR/Cas9 knock-in at the NR3C1 locus)
T2 sequence (P04150 1-777): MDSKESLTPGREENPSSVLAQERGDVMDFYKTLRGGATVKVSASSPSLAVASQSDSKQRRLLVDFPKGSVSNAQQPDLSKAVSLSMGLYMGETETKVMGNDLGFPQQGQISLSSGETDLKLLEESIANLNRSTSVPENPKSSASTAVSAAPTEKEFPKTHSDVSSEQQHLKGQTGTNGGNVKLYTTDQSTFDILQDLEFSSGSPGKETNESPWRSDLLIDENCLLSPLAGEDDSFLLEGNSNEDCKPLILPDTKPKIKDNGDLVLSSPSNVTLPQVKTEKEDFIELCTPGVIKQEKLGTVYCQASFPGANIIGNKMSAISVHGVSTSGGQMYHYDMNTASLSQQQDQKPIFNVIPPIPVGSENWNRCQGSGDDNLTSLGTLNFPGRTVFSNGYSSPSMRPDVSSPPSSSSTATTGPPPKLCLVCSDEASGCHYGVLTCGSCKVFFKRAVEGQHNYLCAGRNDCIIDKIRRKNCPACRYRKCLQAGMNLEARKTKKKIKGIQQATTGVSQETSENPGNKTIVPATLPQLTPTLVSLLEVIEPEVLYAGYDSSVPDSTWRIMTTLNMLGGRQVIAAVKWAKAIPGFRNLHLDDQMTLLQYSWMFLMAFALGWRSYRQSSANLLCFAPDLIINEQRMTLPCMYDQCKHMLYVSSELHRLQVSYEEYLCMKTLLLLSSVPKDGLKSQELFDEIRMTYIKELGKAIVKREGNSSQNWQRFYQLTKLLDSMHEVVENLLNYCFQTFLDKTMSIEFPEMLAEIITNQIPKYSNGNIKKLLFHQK
Text: Where appropriate, compounds were serially diluted in an Echo Qualified 384-Well Low Dead Volume Source Microplate (0018544, Beckman Coulter) to generate dose-titration source material.

ER = ER (Homo sapiens, UniProt P03372); test: Western blot of ER after compound treatment; format: cell-based; conditions: 100 nM fulvestrant, 24 hours; MCF7, T47d, U2OS Halo-ER
Description: Cells were grown in the same conditions as described previously. […] Cells are lysed in 200 μL 1× Cell Lysis Buffer (catalogue number 9803, Cell Signaling). Protein lysate concentration is then determined using BCA protein assay kit (Catalog number 23225, Pierce™ BCA Protein Assay Kit) following manufacturer instructions. Capillary Western Immunoassay were performed using Jess Protein Simple following manufacturer's instruction (protein simple, USA). Levels of αER (1:100, RM-9101) were normalized to loading control β-tubulin (1:100, NC0244815 LI-COR 92642213, Thermo Fisher). The peaks were analyzed with the Compass software (Protein Simple, USA).

Estrogen Receptor (ER) [3] = target: T1, Estrogen Receptor (ER); test: kinetic SMT (kSMT) of ER after compound addition; format: cell-based; conditions: 100 nM compound
Estrogen Receptor (ER) [4] = target: T1, Estrogen Receptor (ER); test: residence time imaging of ER-Halo (track length survival); format: cell-based; conditions: 100 nM HSP90 inhibition, normalized to DMSO

Row | Compound | effect of pathway inhibitors on ER fbound / ER movement (Estrogen Receptor (ER) [1]) | t1/2 of increase in ER fbound (Estrogen Receptor (ER) [3]) [min] | time at which overall effect on ER fbound reaches plateau (Estrogen Receptor (ER) [3]) | decrease in total number of long binding events (Estrogen Receptor (ER) [4]) | also measured
1 | 4-hydroxytamoxifen | – | – | – | – | change in ER fbound, bioactive screen (Estrogen Receptor (ER) [1]): significantly increased fbound; maximal increase in ER fbound, compared with SERDs fulvestrant and GDC-0927 (Estrogen Receptor (ER) [1]): lower maximal increases in fbound
2 | CC(O)c1cc(C(=O)N[C@@H](C)Cn2ccc(-c3ccc(C#N)c(Cl)c3)n2)[nH]n1 (some centres unmarked) [Darolutamide] | – | – | – | – | effect on AR chromatin binding (fbound) (androgen receptor (AR)): decrease in chromatin binding
3 | CN(C)c1ccc(C(c2ccc(N(C)C)cc2)c2cc([N+](=O)[O-])ccc2Cl)cc1 [AL082D06] | – | – | – | – | effect on GR chromatin binding (fbound) [2]: decrease in chromatin binding
4 | C[C@]12CC[C@@H]3c4ccc(O)cc4C[C@@H](CCCCCCCCC[S+]([O-])CCCC(F)(F)C(F)(F)F)[C@H]3[C@@H]1CC[C@@H]2O (some centres unmarked) [fulvestrant] | – | – | – | – | change in ER fbound, bioactive screen (Estrogen Receptor (ER) [1]; 1 μM compound versus DMSO, 5,067-molecule screen): caused an increase in fbound; also recorded: significantly increased fbound; ER degradation by western blot (ER): leads to the degradation of ER
5 | CC(C)c1cc(-c2n[nH]c(=O)n2-c2ccc3c(ccn3C)c2)c(O)cc1O [ganetespib] | increase in fbound | 19.3 | plateau after an hour | four | –
6 | COc1cccc(-c2cc(F)ccc2[C@H]2Cc3nc(N)nc(C)c3C(=O)N2)n1 [HSP990] | increase in fbound | 17.5 | plateau after an hour | two | –
